According to paper PMC11466185, “Mechanisms and efficacy of small molecule latency-promoting agents to inhibit HIV reactivation ex vivo” (JCI Insight, 2024):
Several values for one entry are separate records, joined by “and”; a condition that tells them apart may be missing. Identical values can stand only once. Like-named read-outs stand apart in the source and are kept apart here.

Tests used:
[1] = system: HIV transcripts (TAR, LLTR, Pol, PolyA, TatRev); assay: Latency reversal assay: cell-associated HIV transcripts (RT-ddPCR) 24 hours after anti-CD3/CD28 activation of PBMCs from ART-suppressed PWH; type: cell-based; design: key to TatRev: % of activated DMSO control, normalized to 1 μg total RNA; details: for HIV transcriptional completion, ratio PolyA/LLTR: Figure 3C; for Pol HIV transcripts (DMSO αCD3/28 = 100) / PolyA HIV transcripts (DMSO αCD3/28 = 100) / TatRev HIV transcripts (DMSO αCD3/28 = 100): αCD3/28-activated, ruxolitinib 4μM, triptolide 25-50nM, alvocidib 40nM, dinaciclib 8nM, AZD4573 8nM, quercetin 5μM, pladienolide B 10nM, isoginkgetin 25μM, herboxidiene 5nM, KRIBB11 2.5μM, tanespimycin 5μM, mithramycin A 25nM; for PolyA/LLTR / TatRev/PolyA / LLTR/TAR: DMSO+CD3/28 = 1, Fig 3B, C and D; for PolyA / TatRev: DMSO+αCD3/28 = 100, Fig 3A
In short: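 PBMCs from ART-suppressed people with HIV (6 × 10^6 cells/well) treated with drug in DMSO, activated with anti-CD3/CD28 beads with antiretrovirals, harvested after 24 hours. TAR, LLTR, Pol, PolyA and TatRev transcripts measured by RT-ddPCR, normalized to 1 μg total RNA, expressed as % of activated DMSO control.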

[2] = system: HIV transcripts (PolyA, TatRev); assay: Dose-response curves of LPAs: polyadenylated and multiply spliced HIV transcripts 24 hours after activation; type: cell-based; details: for MS Tat-Rev (dose-response) / PolyA (dose-response): 24 hours, 1 participant per drug; for IC50: 24 h, PBMCs from 1 participant per drug
Experimental: The IC50 was determined based on the reduction in completed (PolyA) as well as multiply spliced (TatRev) HIV transcripts relative to activated DMSO (Table 1).
Figure 2 Dose-response curves of LPAs. Dose-response curves for each drug were generated in PBMCs from 1 ART-suppressed study participant per drug. PBMCs were aliquoted into wells at 6 × 10^6 cells/well, activated, and cultured with antiretrovirals in the presence of DMSO alone (no drug) or varying concentrations of individual drugs in DMSO. After 24 hours, the levels of polyadenylated and multiply spliced HIV transcripts were quantified by RT-ddPCR, normalized to 1 μg of total cellular RNA, and expressed as a percentage of the activated DMSO control (% of activated DMSO).

[3] = 100nM, 24 h after αCD3/28 activation, each column one participant
[4] = 10/100nM, 24 h after αCD3/28 activation, each column one participant
[5] = 24 hours, compared with activated DMSO
[6] = Human immunodeficiency virus 1, PBMC, reduction in PolyA HIV transcripts relative to activated DMSO, read-out: Completed (PolyA) IC50
[7] = Human immunodeficiency virus 1, PBMC, reduction in TatRev HIV transcripts relative to activated DMSO, read-out: Multiply spliced (TatRev) IC50

Compound: pladienolide B
- LLTR HIV transcripts (DMSO+αCD3/28 = 100) [1, 3]: 105.44 and 112.17
- Pol HIV transcripts (DMSO+αCD3/28 = 100) [1, 3]: 61.14 and 46.29
- TatRev HIV transcripts (DMSO+αCD3/28 = 100) [1, 3]: 0
- LLTR HIV transcripts (DMSO+αCD3/28 = 100) [1, 4]: 105.44 and 112.17 and 22.15 and 34.23 and 14.5 and 7.78 and 32.23
- Pol HIV transcripts (DMSO+αCD3/28 = 100) [1, 4]: 61.14 and 46.29 and 2.85 and 58.11 and 12.19 and 5.03 and 29.65
- PolyA HIV transcripts (DMSO+αCD3/28 = 100) [1, 4]: 25.19 and 8
- TAR HIV transcripts (DMSO+αCD3/28 = 100) [1, 4]: 70.83 and 56.32 and 43.76 and 138.46
- TatRev HIV transcripts (DMSO+αCD3/28 = 100) [1, 4]: 0 (4×) and 2.98 and 6.21 and 11.47
- HIV transcriptional completion, ratio PolyA/LLTR [1, 5]: reduced
- HIV multiple splicing, ratio TatRev/PolyA ([1]; 24 hours, compared with activated DMSO, Figure 3D): reduce HIV multiple splicing
- Reduction of multiply spliced or completed HIV transcripts in drug screen (selection as candidate LPA) ([1]; initial screening, 2 participants, 24 hours): more than 50%
- Completed (PolyA) HIV transcripts, median relative to activated DMSO, initial screening ([1]; initial screening, 2 participants, 24 hours, Supplemental Figure 2): 17%
- Pol HIV transcripts (DMSO αCD3/28 = 100) ([1]; participant 2027): 56.14
- PolyA HIV transcripts (DMSO αCD3/28 = 100) ([1]; participant 2027): 45.13
- TatRev HIV transcripts (DMSO αCD3/28 = 100) ([1]; participant 2027): 0
- Pol HIV transcripts (DMSO αCD3/28 = 100) ([1]; participant 2147a): 74.51
- PolyA HIV transcripts (DMSO αCD3/28 = 100) ([1]; participant 2147a): 38.34
- TatRev HIV transcripts (DMSO αCD3/28 = 100) ([1]; participant 2147a): 22.95
- Pol HIV transcripts (DMSO αCD3/28 = 100) ([1]; participant 2161): 44.19
- PolyA HIV transcripts (DMSO αCD3/28 = 100) ([1]; participant 2161): 152.38
- TatRev HIV transcripts (DMSO αCD3/28 = 100) ([1]; participant 2161): 381.82
- PolyA HIV transcripts (DMSO αCD3/28 = 100) ([1]; participant 2461): 53.85
- Pol HIV transcripts (DMSO αCD3/28 = 100) ([1]; participant 2747): 21.03
- PolyA HIV transcripts (DMSO αCD3/28 = 100) ([1]; participant 2747): 65.33
- TatRev HIV transcripts (DMSO αCD3/28 = 100) ([1]; participant 2747): 0
- Pol HIV transcripts (DMSO αCD3/28 = 100) ([1]; participant 2750): 212.24
- PolyA HIV transcripts (DMSO αCD3/28 = 100) ([1]; participant 2750): 74.85
- TatRev HIV transcripts (DMSO αCD3/28 = 100) ([1]; participant 2750): 155
- Multiply spliced HIV transcripts (TatRev) (Fig 1B) ([1]; study participant 150a, 24 hours): 0 % of activated DMSO
- PolyA/LLTR ([1]; study participant 150a): 0.2389
- TatRev/PolyA ([1]; study participant 150a): 0
- PolyA ([1]; study participant 150a): 25.19
- TatRev ([1]; study participant 150a): 0
- Multiply spliced HIV transcripts (TatRev) (Fig 1B) ([1]; study participant 152, 24 hours): 0 % of activated DMSO
- PolyA/LLTR ([1]; study participant 152): 0.07129
- TatRev/PolyA ([1]; study participant 152): 0
- PolyA ([1]; study participant 152): 8
- TatRev ([1]; study participant 152): 0
- PolyA/LLTR ([1]; study participant 163): 0.2589
- TatRev/PolyA ([1]; study participant 163): 0
- PolyA ([1]; study participant 163): 5.73
- TatRev ([1]; study participant 163): 0
- LLTR/TAR ([1]; study participant 1379): 0.1778
- PolyA/LLTR ([1]; study participant 1379): 0.4115
- TatRev/PolyA ([1]; study participant 1379): 0
- PolyA ([1]; study participant 1379): 3.2
- TatRev ([1]; study participant 1379): 0
- LLTR/TAR ([1]; study participant 2147b): 0.4833
- PolyA/LLTR ([1]; study participant 2147b): 0.2849
- TatRev/PolyA ([1]; study participant 2147b): 0.3058
- PolyA ([1]; study participant 2147b): 9.75
- TatRev ([1]; study participant 2147b): 2.98
- LLTR/TAR ([1]; study participant 2256): 0.2575
- PolyA/LLTR ([1]; study participant 2256): 0.2751
- TatRev/PolyA ([1]; study participant 2256): 1.556
- PolyA ([1]; study participant 2256): 3.99
- TatRev ([1]; study participant 2256): 6.21
- LLTR/TAR ([1]; study participant 5557): 0.2328
- PolyA/LLTR ([1]; study participant 5557): 0.5006
- TatRev/PolyA ([1]; study participant 5557): 0.7112
- PolyA ([1]; study participant 5557): 16.13
- TatRev ([1]; study participant 5557): 11.47
- MS Tat-Rev (dose-response) ([2]; dose 0.1 nM): 34.26 % of activated DMSO
- PolyA (dose-response) ([2]; dose 0.1 nM): 47.95 % of activated DMSO
- MS Tat-Rev (dose-response) ([2]; dose 1 nM): 17.07 % of activated DMSO
- PolyA (dose-response) ([2]; dose 1 nM): 43.55 % of activated DMSO
- MS Tat-Rev (dose-response) ([2]; dose 10 nM): 0.76 % of activated DMSO
- PolyA (dose-response) ([2]; dose 10 nM): 4 % of activated DMSO
- IC50 ([2]; reduction in PolyA HIV transcripts relative to activated DMSO, read-out: Completed (PolyA) IC50): 0.18 nM
- IC50 ([2]; reduction in TatRev HIV transcripts relative to activated DMSO, read-out: Multiply spliced (TatRev) IC50): 0.06 nM

Compound: N#CC[C@H](C1CCCC1)n1cc(-c2ncnc3[nH]ccc23)cn1 [ruxolitinib]
- mrna remaining at 4 µM ([1]; Human immunodeficiency virus 1, PBMC, 24 h, 4μM, 24 h after αCD3/28 activation, each column one participant, read-out: TAR HIV transcripts (DMSO+αCD3/28 = 100)): 34.5%
- IC50 [2, 6]: 270 nM
- IC50 [2, 7]: 260 nM
- MS Tat-Rev (dose-response) ([2]; dose 0.4 µM): 41.24 % of activated DMSO
- PolyA (dose-response) ([2]; dose 0.4 µM): 33.83 % of activated DMSO
- MS Tat-Rev (dose-response) ([2]; dose 1 µM): 15.99 % of activated DMSO
- PolyA (dose-response) ([2]; dose 1 µM): 29.83 % of activated DMSO
- MS Tat-Rev (dose-response) ([2]; dose 4 µM): 8.19 % of activated DMSO
- PolyA (dose-response) ([2]; dose 4 µM): 7.04 % of activated DMSO
- MS Tat-Rev (dose-response) ([2]; dose 10 µM): 4.34 % of activated DMSO
- PolyA (dose-response) ([2]; dose 10 µM): 4.66 % of activated DMSO

Compound: CC(=O)N[C@@H]1CCC[C@H](C(=O)Nc2cc(-c3cnn4c3CC(C)(C)C4)c(Cl)cn2)C1 [AZD4573]
- HIV transcriptional completion, ratio PolyA/LLTR [1, 5]: reduced
- IC50 [2, 6]: 0.28 nM
- IC50 [2, 7]: 0.23 nM
- MS Tat-Rev (dose-response) ([2]; dose 1 nM): 18.92 % of activated DMSO
- PolyA (dose-response) ([2]; dose 1 nM): 20.96 % of activated DMSO
- MS Tat-Rev (dose-response) ([2]; dose 8 nM): 1.11 % of activated DMSO
- PolyA (dose-response) ([2]; dose 8 nM): 5.23 % of activated DMSO
- MS Tat-Rev (dose-response) ([2]; dose 20 nM): 0.18 % of activated DMSO
- PolyA (dose-response) ([2]; dose 20 nM): 4.94 % of activated DMSO
